According to ChEMBL document CHEMBL1128596, “Thienylimidazo[2,1-b]thiazoles as inhibitors of mitochondrial NADH dehydrogenase” (J Med Chem, 1995):
pIC50: −log10 of the molar value.

Experiments:
Parascaris equorum = assay: Residual NADH:UBQ:DCIP reductase activity in parascaris mitochondrial particles; design: concentration or dose not given beside the values
Bos taurus = species: Bos taurus; assay: Residual NADH:UBQ:DCIP reductase activity in beef mitochondrial particles; design: concentration or dose not given beside the values
[1] = Compound was tested for it's ability to inhibit NADH UBQ reductase activity in parascaris mitochondrial particles
[2] = Compound was tested for it's ability to inhibit NADH UBQ reductase activity in beef mitochondrial particles; design: species or system Bos taurus

Structure (SMILES)	residual activity (Parascaris equorum)	residual activity (Bos taurus)	pIC50 [1]	pIC50 [2]
Cn1c(-c2ccccc2)c(/C=C/c2cccs2)[n+]2ccsc12	94%	81%		
Cc1csc2nc(-c3cccs3)cn12	70%	38%	3.42	4.05
Cc1cn2cc(-c3cccs3)nc2s1	59%	28%	3.66	4.15
c1csc(-c2cn3c(n2)SCC3)c1	88%	68%		
Cn1c(-c2ccccc2)c(/C=C/c2cccs2)[n+]2c1SCC2	92%	77%		
C=C(C)[C@H]1Cc2c(ccc3c2O[C@@H]2COc4cc(OC)c(OC)cc4[C@@H]2C3=O)O1	65%	34%		
Cn1c(Cl)c(/C=C/c2cccs2)[n+]2c1SCC2	88%	91%		
Clc1cn2cc(-c3cccs3)nc2s1	75%	40%		
Cc1cn2cc(-c3ccsc3)nc2s1	73%	40%		3.85
c1csc(-c2cn3ccsc3n2)c1	79%	57%		
c1cc(-c2cn3ccsc3n2)cs1	83%	68%		
Cc1csc2nc(-c3ccsc3)cn12	75%	43%		3.68
Cn1c(Cl)c(/C=C\c2cccs2)[n+]2c1SCC2	92%	85%		
